Measurements taken from ChEMBL document CHEMBL5653615 (J Biol Chem, 2013).

What was measured:
[1] = molecular target: Proto-oncogene tyrosine-protein kinase receptor Ret (Homo sapiens) (UniProt P07949); assay: Inhibition of human RET at 18.6 nM by HotSpot assay relative to control
[2] = molecular target: Homeodomain-interacting protein kinase 1 (Homo sapiens) (UniProt Q86Z02); assay: Inhibition of human HIPK1 at 18.6 nM by HotSpot assay relative to control
[3] = molecular target: T1, Serine/threonine-protein kinase TBK1 (Homo sapiens) (UniProt Q9UHD2); assay: Inhibition of human TBK1 at 18.6 nM by HotSpot assay relative to control
T1 sequence (whole entry): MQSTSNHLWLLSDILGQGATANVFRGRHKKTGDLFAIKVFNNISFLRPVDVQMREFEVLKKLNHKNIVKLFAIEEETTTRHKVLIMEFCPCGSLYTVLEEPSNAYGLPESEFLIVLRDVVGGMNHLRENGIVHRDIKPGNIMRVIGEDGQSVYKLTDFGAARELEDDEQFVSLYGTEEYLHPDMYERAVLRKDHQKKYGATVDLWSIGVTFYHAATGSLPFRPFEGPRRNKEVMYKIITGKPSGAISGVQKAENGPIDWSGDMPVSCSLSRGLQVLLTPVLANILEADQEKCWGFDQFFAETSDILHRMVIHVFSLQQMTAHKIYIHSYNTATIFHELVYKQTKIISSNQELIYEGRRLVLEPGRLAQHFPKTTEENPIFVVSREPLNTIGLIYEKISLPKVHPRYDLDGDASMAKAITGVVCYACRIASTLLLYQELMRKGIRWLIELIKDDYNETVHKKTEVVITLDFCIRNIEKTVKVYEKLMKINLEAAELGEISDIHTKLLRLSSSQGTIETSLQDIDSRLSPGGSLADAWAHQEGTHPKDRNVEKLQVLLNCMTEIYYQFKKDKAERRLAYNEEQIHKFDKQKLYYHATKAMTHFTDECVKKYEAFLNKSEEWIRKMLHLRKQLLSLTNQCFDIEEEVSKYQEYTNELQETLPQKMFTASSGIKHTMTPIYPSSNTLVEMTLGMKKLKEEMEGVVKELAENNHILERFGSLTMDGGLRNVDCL

[4] = molecular target: T2, Ephrin type-B receptor 3 (Homo sapiens) (UniProt P54753); assay: Inhibition of human EPHB3 at 18.6 nM by HotSpot assay relative to control
T2 sequence (whole entry): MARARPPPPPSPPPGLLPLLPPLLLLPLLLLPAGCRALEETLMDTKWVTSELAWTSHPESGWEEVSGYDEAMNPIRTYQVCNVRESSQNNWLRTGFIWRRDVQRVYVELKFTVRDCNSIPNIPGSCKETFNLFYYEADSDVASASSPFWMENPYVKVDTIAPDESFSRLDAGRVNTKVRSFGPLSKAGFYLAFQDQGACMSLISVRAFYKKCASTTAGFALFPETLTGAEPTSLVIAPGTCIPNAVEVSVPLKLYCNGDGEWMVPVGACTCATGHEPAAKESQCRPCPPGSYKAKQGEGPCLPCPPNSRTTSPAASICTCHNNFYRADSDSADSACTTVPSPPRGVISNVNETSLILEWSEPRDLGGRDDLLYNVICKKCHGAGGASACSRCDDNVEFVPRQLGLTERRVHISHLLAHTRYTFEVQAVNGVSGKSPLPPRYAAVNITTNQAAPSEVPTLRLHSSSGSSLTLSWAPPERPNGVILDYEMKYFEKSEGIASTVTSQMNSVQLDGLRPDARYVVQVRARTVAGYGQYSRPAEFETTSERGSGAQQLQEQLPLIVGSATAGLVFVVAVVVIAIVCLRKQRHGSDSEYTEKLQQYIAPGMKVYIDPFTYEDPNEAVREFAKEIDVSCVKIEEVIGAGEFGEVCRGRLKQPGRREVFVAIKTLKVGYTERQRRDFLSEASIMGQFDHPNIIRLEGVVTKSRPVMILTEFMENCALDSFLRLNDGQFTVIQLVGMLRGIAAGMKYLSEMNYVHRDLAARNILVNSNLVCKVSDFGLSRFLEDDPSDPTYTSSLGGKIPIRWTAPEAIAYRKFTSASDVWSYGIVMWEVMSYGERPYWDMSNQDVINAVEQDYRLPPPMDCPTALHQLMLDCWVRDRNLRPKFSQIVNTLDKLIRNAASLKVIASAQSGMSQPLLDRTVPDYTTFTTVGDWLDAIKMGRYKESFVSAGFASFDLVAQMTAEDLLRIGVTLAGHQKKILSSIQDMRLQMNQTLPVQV

[5] = molecular target: T3, Tyrosine-protein kinase ZAP-70 (Homo sapiens) (UniProt P43403); assay: Inhibition of human ZAP70 at 18.6 nM by HotSpot assay relative to control
T3 sequence (whole entry): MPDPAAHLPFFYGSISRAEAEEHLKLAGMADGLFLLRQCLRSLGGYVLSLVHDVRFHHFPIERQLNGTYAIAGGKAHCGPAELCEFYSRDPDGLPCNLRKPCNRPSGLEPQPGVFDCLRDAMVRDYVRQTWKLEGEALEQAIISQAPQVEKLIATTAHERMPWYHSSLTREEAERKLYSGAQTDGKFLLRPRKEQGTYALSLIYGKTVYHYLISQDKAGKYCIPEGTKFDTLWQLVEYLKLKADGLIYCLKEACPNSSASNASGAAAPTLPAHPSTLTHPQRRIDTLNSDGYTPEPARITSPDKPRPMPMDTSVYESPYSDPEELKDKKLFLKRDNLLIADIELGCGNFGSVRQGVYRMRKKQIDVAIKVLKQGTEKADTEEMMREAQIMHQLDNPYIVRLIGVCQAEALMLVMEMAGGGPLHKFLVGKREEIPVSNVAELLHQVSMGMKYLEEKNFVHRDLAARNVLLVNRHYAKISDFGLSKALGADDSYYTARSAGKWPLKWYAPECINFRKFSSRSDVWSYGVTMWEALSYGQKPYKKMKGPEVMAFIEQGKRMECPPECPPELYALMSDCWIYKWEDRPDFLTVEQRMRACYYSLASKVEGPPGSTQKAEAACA

[6] = molecular target: Protein-tyrosine kinase 6 (Homo sapiens) (UniProt Q13882); assay: Inhibition of human BRK at 18.6 nM by HotSpot assay relative to control
[7] = molecular target: Homeodomain-interacting protein kinase 2 (Homo sapiens) (UniProt Q9H2X6); assay: Inhibition of human HIPK2 at 18.6 nM by HotSpot assay relative to control
[8] = molecular target: Misshapen-like kinase 1 (Homo sapiens) (UniProt Q8N4C8); assay: Inhibition of human MINK1 at 1.82 nM by HotSpot assay relative to control
[9] = molecular target: Insulin receptor-related protein (Homo sapiens) (UniProt P14616); assay: Inhibition of human IRR at 1.82 nM by HotSpot assay relative to control
[10] = molecular target: Glycogen synthase kinase-3 beta (Homo sapiens) (UniProt P49841); assay: Inhibition of human GSK3b at 1.82 nM by HotSpot assay relative to control
[11] = molecular target: Tyrosine-protein kinase Yes (Homo sapiens) (UniProt P07947); assay: Inhibition of human YES1 at 1.82 nM by HotSpot assay relative to control
Sequence of Tyrosine-protein kinase Yes (Homo sapiens) (P07947 2-543 limits assumed): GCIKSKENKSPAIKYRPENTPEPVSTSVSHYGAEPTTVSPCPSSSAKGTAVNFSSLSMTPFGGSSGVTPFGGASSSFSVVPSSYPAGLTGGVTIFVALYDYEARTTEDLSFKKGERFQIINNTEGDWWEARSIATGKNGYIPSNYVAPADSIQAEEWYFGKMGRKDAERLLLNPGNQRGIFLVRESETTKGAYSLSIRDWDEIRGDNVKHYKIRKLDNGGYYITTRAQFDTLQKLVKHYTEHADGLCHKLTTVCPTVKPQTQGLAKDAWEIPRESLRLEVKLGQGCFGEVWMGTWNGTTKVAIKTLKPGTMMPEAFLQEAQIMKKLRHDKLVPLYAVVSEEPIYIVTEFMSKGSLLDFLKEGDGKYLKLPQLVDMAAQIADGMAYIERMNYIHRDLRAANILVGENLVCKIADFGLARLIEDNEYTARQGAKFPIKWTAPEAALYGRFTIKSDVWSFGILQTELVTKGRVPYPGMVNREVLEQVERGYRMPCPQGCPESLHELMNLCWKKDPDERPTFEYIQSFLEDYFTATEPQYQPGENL

Sequence of Proto-oncogene tyrosine-protein kinase receptor Ret (Homo sapiens) (P07949 whole entry): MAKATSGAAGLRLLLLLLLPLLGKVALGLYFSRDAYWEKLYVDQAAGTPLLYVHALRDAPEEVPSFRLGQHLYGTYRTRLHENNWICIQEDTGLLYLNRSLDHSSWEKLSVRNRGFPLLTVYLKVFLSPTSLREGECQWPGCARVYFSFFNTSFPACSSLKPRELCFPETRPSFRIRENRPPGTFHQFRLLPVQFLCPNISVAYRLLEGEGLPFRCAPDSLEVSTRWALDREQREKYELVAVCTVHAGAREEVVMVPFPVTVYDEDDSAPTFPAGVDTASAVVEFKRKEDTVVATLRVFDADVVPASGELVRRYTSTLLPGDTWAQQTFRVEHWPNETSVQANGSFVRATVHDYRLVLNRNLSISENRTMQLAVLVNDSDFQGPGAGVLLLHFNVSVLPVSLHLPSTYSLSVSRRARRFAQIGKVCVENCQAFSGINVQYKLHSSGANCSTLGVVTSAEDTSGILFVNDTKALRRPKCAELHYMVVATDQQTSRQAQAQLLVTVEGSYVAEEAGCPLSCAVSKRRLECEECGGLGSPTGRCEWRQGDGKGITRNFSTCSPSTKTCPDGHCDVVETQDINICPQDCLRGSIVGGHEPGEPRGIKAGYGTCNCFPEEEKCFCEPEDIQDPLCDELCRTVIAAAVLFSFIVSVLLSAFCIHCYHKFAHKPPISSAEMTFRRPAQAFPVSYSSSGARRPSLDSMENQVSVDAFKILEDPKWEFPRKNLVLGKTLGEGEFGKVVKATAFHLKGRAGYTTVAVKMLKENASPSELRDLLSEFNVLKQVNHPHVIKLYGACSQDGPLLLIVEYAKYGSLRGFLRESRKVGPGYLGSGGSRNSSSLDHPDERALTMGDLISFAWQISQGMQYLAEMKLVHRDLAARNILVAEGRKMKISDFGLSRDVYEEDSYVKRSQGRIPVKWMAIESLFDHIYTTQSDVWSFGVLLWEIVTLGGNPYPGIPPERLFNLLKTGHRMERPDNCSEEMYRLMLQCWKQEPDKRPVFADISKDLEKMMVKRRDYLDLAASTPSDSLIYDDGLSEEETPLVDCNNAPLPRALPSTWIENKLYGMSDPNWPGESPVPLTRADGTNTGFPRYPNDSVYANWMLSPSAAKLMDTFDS
Sequence of Homeodomain-interacting protein kinase 2 (Homo sapiens) (Q9H2X6 whole entry, looked up): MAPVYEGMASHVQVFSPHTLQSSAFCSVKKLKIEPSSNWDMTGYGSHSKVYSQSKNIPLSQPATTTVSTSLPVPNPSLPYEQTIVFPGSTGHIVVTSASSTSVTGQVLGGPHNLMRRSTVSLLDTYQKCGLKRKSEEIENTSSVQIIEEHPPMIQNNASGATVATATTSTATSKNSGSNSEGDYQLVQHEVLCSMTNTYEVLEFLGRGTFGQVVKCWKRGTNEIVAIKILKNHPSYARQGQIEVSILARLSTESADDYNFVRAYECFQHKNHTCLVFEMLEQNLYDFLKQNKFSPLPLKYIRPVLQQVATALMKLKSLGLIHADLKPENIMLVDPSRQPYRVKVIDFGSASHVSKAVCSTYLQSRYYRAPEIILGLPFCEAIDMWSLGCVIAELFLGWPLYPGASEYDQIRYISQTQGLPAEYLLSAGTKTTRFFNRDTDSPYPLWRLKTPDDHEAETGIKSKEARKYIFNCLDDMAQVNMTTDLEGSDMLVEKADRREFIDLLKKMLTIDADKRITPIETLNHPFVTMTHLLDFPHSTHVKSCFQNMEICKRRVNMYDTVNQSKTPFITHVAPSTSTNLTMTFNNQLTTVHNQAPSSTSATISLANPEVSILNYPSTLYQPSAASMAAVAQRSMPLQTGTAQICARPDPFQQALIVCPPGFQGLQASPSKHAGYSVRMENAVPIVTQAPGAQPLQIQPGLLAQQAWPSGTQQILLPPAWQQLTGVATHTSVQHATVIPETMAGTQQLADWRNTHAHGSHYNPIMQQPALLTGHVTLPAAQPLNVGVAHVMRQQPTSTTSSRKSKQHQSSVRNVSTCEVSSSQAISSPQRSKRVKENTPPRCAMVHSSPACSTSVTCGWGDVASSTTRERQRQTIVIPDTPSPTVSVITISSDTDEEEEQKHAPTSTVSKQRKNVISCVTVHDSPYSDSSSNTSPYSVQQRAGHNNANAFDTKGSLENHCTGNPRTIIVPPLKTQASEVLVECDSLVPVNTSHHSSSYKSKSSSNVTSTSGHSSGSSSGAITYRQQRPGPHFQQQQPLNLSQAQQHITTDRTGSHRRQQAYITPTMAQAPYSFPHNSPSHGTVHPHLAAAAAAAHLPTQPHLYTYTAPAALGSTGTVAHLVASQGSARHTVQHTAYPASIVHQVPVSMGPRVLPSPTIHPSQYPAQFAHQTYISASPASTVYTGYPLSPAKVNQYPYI
Sequence of Glycogen synthase kinase-3 beta (Homo sapiens) (P49841 whole entry, looked up): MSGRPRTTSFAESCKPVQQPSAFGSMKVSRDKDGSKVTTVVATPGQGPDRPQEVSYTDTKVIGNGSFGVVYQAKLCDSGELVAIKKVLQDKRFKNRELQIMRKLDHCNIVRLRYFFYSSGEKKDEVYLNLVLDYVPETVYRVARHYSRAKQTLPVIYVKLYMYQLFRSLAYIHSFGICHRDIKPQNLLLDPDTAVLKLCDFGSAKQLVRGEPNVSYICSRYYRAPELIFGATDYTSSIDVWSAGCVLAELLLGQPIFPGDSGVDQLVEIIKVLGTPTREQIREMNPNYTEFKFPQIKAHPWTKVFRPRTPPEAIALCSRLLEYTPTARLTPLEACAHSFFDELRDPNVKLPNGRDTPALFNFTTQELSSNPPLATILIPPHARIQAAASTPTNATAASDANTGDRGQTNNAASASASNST
Sequence of Protein-tyrosine kinase 6 (Homo sapiens) (Q13882 whole entry, looked up): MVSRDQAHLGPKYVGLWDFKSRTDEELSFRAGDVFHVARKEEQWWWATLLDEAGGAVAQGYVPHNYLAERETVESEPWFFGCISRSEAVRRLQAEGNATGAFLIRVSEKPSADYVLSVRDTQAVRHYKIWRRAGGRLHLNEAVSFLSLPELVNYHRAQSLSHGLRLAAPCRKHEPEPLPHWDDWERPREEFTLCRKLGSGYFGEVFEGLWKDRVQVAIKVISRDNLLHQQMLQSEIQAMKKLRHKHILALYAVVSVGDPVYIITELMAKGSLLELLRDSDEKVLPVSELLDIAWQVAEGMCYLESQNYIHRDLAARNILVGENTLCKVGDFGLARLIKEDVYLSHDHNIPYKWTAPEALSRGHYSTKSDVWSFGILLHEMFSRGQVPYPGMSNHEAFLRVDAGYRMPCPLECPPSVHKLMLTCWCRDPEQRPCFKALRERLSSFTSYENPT
Sequence of Homeodomain-interacting protein kinase 1 (Homo sapiens) (Q86Z02 whole entry, looked up): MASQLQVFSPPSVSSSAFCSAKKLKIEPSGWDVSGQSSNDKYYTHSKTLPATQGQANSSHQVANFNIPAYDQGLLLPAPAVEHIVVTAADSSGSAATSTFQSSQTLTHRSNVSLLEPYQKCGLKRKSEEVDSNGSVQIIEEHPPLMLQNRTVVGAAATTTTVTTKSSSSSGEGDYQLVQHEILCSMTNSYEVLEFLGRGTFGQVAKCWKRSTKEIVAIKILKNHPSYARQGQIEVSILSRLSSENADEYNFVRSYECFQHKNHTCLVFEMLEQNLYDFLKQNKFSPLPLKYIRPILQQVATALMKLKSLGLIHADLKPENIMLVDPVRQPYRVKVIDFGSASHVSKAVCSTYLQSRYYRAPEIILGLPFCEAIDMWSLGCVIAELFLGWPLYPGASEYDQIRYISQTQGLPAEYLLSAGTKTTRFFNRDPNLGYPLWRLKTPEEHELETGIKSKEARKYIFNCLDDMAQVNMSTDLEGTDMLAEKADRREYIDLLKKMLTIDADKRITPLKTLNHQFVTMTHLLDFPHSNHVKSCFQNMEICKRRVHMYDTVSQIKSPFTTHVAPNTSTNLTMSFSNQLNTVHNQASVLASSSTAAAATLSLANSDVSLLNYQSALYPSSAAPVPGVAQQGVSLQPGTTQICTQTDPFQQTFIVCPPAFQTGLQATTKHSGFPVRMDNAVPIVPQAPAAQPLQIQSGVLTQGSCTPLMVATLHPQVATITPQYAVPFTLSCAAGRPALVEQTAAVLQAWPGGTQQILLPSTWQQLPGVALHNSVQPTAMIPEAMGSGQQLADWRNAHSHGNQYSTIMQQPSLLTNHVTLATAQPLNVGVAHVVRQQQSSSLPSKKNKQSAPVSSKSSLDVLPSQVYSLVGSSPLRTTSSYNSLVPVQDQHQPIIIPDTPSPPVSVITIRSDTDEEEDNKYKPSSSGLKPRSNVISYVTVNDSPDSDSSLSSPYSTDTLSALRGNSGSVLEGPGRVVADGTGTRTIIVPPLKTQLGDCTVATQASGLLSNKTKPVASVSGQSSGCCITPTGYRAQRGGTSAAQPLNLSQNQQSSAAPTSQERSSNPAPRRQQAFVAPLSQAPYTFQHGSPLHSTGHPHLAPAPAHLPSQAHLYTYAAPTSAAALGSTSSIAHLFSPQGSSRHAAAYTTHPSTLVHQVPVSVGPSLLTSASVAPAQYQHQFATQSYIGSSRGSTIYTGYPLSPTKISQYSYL

Row | SMILES | inhibition [1] [%] | inhibition [2] [%] | inhibition [3] [%] | inhibition [4] [%] | inhibition [5] [%] | inhibition [6] [%] | inhibition [7] [%] | inhibition [8] [%] | inhibition [9] [%] | inhibition [10] [%] | inhibition [11] [%]
1 | C[C@]1(O)C[C@@H](c2nc(-c3ccc4ccc(-c5ccccc5)nc4c3)c3c(N)nccn32)C1 | 15.8 | -4.32 | 5.59 | -2.53 | -3.52 | 3.64 | -0.98 |  |  |  | 
2 | C[C@@]1(C(=O)Nc2ccc(F)nc2)CCCN1c1nc(Nc2cc(C3CC3)n[nH]2)c2cccn2n1 |  |  |  |  |  |  |  | 0.36 | 33.5 | 34.6 | 5.36
